One compound from article PMC10394814, “Discovery and evaluation of active compounds from Xuanfei Baidu formula against COVID-19 via SARS-CoV-2 M^pro” (Chinese Medicine, 2023) can be followed below.

The test system of one test is Omicron BA.1.1 variant. The experiment in a line: Antiviral activity assay (CPE) in Vero E6 cells, Omicron BA.1.1. In kind it is cell-based, SARS-CoV-2.
A further test relates to Omicron BA.2.3 variant. The test can be described thus: Antiviral activity assay (CPE) in Vero E6 cells, Omicron BA.2.3. In kind it is cell-based, SARS-CoV-2.

As for `Cn1cnc(Cn2c(=O)[nH]/c(=N\c3cc4cn(C)nc4cc3Cl)n(Cc3cc(F)c(F)cc3F)c2=O)n1` [S-217622, reference compound], the EC50 in the test on Omicron BA.1.1 variant was determined as 120 nM; in the test on Omicron BA.2.3 variant, 235 nM.

Usually EC50 stands for the concentration that produces a half-maximal response.
